Marks after values point to notes of the source that are not given here.
Key:
[1] = target: T1, PPARδ (Homo sapiens (Human), UniProt Q03181); test: Activation of PPARδ in genetically engineered CHO-K1 cells (PathHunter); type: cell-based; conditions: PathHunter CHO-K1 PPARδ cell line, agonist format, 6 hours
Source text: (§1) Test Example 3: Experiment of Compounds on Activation of PPAR α, δ and γ in Genetically Engineered CHO-K1 Cells
(§2) Cell: PathHunter® CHO-K1 PPARα Protein Interaction Cell Line, PathHunter® CHO-K1 PPARδ Protein Interaction Cell Line and PathHunter® CHO-K1 PPARγ Protein Interaction Cell Line, provided by DiscoverX®.
(§3) Assay kit: PathHunter® Detection Kit, provided by DiscoverX®.
(§4) 1) Cell Handling: PathHunter NHR (nuclear hormone receptor, PPARα, δ, γ) cell lines were expanded from freezer stocks according to standard procedures. Cells were seeded in a total volume of 20 μL into white walled, 384-well microplates and incubated at 37° C., 5% CO2 for the appropriate time prior to testing. […]
(§5) 3) Signal detection: Assay signal was generated through a single addition of 12.5 or 15 μL (50% v/v) of PathHunter Detection reagent cocktail, followed by one-hour-incubation at room temperature. Microplates were read following signal generation with a PerkinElmer Envision™ instrument for chemiluminescent signal detection.
(§6) 4) Data analysis: Both compound activity and EC50S were analyzed using CBIS data analysis suite (ChemInnovation, CA). For agonist mode assays, percentage activity was calculated using the following formula: % Activity=100%×(mean RLU of test sample−mean RLU of vehicle control)/(mean MAX control ligand−mean RLU of vehicle control).
Target sequence in this assay (Q03181 whole entry): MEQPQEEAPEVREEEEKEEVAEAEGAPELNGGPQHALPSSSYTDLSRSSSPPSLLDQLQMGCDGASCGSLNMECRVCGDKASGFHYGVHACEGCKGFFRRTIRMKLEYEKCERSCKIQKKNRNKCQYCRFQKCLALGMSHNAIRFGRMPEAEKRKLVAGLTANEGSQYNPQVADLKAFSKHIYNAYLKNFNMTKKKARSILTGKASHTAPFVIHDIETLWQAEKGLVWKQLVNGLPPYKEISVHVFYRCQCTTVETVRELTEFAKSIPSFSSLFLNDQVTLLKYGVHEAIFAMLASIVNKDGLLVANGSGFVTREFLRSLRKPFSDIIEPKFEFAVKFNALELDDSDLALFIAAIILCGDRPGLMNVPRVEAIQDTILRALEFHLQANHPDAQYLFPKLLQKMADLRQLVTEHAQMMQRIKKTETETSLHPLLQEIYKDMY

[2] = target: T2, PPARα (Homo sapiens (Human), UniProt Q07869); test: Activation of PPARα in genetically engineered CHO-K1 cells (PathHunter); type: cell-based; conditions: PathHunter CHO-K1 PPARα cell line, agonist format, 6 hours
Source text: as §1, §2, §3, §4, §5, §6
Target sequence in this assay (Q07869 whole entry): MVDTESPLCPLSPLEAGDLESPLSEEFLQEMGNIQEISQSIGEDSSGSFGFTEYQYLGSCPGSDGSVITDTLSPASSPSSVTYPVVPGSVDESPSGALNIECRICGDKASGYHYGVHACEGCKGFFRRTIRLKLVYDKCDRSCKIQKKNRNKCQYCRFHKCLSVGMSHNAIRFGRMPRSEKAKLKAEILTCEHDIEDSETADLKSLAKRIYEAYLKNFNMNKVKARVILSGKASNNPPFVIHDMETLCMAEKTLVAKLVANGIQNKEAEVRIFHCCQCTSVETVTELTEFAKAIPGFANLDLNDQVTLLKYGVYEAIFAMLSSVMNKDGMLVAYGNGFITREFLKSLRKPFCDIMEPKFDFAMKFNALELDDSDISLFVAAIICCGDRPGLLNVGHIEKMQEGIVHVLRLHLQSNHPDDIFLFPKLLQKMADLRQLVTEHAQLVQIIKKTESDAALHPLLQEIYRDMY

[3] = target: PPARγ (Homo sapiens (Human), UniProt P37231); test: Activation of PPARγ in genetically engineered CHO-K1 cells (PathHunter); type: cell-based; conditions: PathHunter CHO-K1 PPARγ cell line, agonist format, 6 hours
Source text: as §1, §2, §3, §4, §5, §6

[4] = target: T1, PPARδ; test: Activation of transient transfected PPAR δ in HEK293 cells (GAL4-hPPAR δ luciferase assay); type: cell-based; conditions: HEK293 transfected with GAL4-hPPAR δ, 24 h incubation
Experimental: Test Example 2: Experiment of the Compounds on Activation of Transient Transfected PPAR δ in HEK293 Cells
Plasmid: pcDNA3.1(+)-GAL4-hPPAR δ, customized by Nanjing Kebai Biotechnology Co., Ltd.
(§7) Liposome: PGL4.35, customized by Nanjing Kebai Biotechnology Co., Ltd.
(§8) Cell: human embryonic kidney cells HEK293, purchased from ATCC.
(§9) Transfection reagent: Lipofectamine Reagent 3000 purchased from Invitrogen.
(§10) Assay kit: Bright Glo™ Luciferase Assay System purchased from Promega.
(§11) HEK293 cells were incubated in DMEM medium containing 10% of fetal bovine serum at 37° C. in the presence of 5% of CO2. 3×10^5/ml cells were plated in each well of the 6-well plate. When the cell convergence degree reached 50%-80%, 5 μg of liposome PGL4.35 and 5 μg of expression plasmid pcDNA3.1(+)-GAL4-hPPAR δ were added to transfect the cells for 24 h and then the cells were collected. Then, the transfected cells were plated in the 96-well plate and the compounds of the application in different concentrations were added, incubated for 24 h, and Bright Glo™ Luciferase Assay System reagent for luciferase assay was added.
Target sequence in this assay (Q03181 whole entry, looked up): as the sequence (Q03181 whole entry) above

[5] = tested on: MCD model of non-alcoholic steatohepatitis; test: In vivo efficacy study in the MCD model of non-alcoholic steatohepatitis; parameters: species or system C57 Mice; conditions: MCD diet mice
Experimental: Test Example 6: In Vivo Efficacy Study of Compound in the MCD Model of Non-Alcoholic Steatohepatitis In this example, comparative test between compound GFT505 from WO2018133705A1 and compounds of the invention was conducted, so as to show the advantages of compounds of the invention. C57 Mice at 8-10 weeks of age (purchased from Vital River Laboratories) were body-weight matched and randomly divided into groups of normal, model, control and test. Mice in normal group were fed with standard chow for 9 weeks. Mice in model group, control group and test group were fed with MCD diet (Methionine-Choline Deficient Diet, Research Diets) for 9 weeks to induce NASH Model. During weeks 5-9 of the 9-week course of MCD diet, the control group and the test group were treated with GFT505 and TM4 of the invention, respectively, and the normal group and model group were treated with 0.5% MC. The dosage regimen was specified in table 5. [table] Animals were dissected after administration on day 35, livers were collected for H&E staining (hematoxylin-eosin staining) and sirius red staining. And then NAFLD activity score, including liver steatosis score, inflammation score and ballooning score, and liver fibrosis score were conducted.

[6] = target: T2, PPARα; test: Activation of transient transfected PPAR α in HEK293 cells (GAL4-hPPAR α luciferase assay); type: cell-based; conditions: HEK293 transfected with GAL4-hPPAR α, 24 h incubation
Experimental: Test example 1: Experiment of the compounds on activation of transient transfected PPAR α in HEK293 cells
Plasmid: pcDNA3.1(+)-GAL4-hPPAR α, customized by Nanjing Kebai Biotechnology Co., Ltd.
as §7, §8, §9, §10
as §11, with “α” for “δ”, “The” for “Then, the”, “reagent was added” for “reagent”, “assay.” for “assay was added.”
Target sequence in this assay (Q07869 whole entry, looked up): as the sequence (Q07869 whole entry) above

[7] = target: hERG potassium ion channel (Homo sapiens (Human), UniProt Q12809); test: Predictor hERG fluorescence polarization; type: binding
Experimental: Test Example 5: In Vitro Safety Test
The effect of the compound on hERG potassium ion channel was tested by Predictor™ hERG fluorescence polarization.

[8] = Cytotoxicity test on HEK293 cells (CellTiter Glo); type: cell-based; conditions: human, incubated for 3 days
Experimental: (§12) Test Example 4: Cytotoxicity Test of Compound on HepG2 & Hek293 Cells
(§13) Cells: human hepatocyte HepG2, purchased from ATCC; Human embryonic kidney cells HEK293: purchased from ATCC;
(§14) Assay reagent: CellTiter Glo® Luminescent Cell Viability Assay, purchased from Promega.
(§15) HepG2 and HEK293 cells were incubated in DMEM/F12 medium containing 10% of fetal bovine serum respectively. A proper amount of cells were plated into a 96-well plate, the plate was placed in an incubator overnight, and the culture medium was removed, and replaced with a complete culture medium containing the compound of the application, and incubated for 3 days. On day 4, an assay reagent CellTiter Glo was added to each well, and the relative luminous unit (RLU) of each well was determined by chemiluminescence. CC50 values of the compound of the application to HepG2 and HEK293 cells were calculated by GraphPad software, and the results were shown in Table 3.

[9] = Cytotoxicity test on HepG2 cells (CellTiter Glo); type: cell-based; conditions: human, incubated for 3 days
Experimental: as §12, §13, §14, §15

[10] = 1 mg/kg intragastric once every day for 35 days
[11] = 1 mg/kg, 35 days, result in words

Chain of PPARγ (P37231 whole entry): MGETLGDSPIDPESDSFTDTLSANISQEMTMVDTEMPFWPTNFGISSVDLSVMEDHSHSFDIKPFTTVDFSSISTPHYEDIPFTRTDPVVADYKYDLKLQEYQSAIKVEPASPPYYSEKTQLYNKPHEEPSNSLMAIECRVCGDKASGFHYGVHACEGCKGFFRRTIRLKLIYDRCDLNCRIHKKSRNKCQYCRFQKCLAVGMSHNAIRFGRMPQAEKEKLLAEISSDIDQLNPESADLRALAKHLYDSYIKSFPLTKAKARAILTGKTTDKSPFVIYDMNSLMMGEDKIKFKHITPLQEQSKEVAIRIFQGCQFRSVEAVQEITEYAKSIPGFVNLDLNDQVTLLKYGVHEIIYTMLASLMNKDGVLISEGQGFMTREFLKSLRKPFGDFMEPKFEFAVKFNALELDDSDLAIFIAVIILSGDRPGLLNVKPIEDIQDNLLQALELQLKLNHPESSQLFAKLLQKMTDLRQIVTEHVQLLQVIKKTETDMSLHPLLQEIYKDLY
Chain of hERG potassium ion channel (Q12809 whole entry): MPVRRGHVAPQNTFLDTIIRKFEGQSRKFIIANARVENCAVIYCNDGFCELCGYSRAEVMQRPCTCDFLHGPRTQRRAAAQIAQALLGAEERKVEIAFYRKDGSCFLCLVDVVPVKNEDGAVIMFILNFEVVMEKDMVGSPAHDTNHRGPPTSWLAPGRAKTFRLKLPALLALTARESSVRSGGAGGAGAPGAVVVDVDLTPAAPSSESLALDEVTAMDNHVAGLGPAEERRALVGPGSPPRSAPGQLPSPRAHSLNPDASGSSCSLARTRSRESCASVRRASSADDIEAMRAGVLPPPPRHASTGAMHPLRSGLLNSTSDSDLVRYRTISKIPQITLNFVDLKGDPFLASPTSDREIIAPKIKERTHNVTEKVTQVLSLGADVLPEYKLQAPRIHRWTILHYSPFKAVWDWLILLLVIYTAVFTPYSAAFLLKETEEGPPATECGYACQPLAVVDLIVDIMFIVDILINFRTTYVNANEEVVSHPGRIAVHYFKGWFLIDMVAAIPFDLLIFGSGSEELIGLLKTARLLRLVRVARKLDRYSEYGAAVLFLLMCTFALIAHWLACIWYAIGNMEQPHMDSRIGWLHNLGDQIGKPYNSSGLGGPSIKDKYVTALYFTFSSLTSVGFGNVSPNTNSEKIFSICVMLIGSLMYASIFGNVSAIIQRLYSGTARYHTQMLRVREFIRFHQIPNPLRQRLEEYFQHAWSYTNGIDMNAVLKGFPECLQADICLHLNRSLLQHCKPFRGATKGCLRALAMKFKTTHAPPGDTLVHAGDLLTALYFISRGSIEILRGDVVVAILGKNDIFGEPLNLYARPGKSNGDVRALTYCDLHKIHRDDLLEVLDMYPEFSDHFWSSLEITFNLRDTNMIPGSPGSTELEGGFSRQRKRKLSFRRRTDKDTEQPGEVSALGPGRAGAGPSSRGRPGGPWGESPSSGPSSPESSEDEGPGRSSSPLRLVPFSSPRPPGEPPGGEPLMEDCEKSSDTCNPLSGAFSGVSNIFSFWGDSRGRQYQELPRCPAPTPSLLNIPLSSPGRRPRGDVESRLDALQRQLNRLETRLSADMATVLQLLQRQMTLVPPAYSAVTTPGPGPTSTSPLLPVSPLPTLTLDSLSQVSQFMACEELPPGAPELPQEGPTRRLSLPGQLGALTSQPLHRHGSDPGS

Row | Structure (SMILES) | EC50 [1] [µM] | EC50 [2] [µM] | EC50 [3] [µM] | EC50 [4] [µM] | Liver fibrosis score (Mean ± SD) [5, 10] | NAFLD activity score (Mean ± SD) [5, 10] | Reduction of NAFLD activity score compared with model group [5, 11] | Reduction of liver fibrosis score compared with model group [5, 11] | EC50 [6] [µM] | IC50 [7] [µM] | CC50 at 3 days [8] [µM] | CC50 at 3 days [9] [µM]
1 | COc1nc2ccccc2cc1C(=O)CCc1cc(C)c(OC(C)(C)C(=O)O)c(C)c1 [TM42, 2-(4-(3-(2-methoxyquinolin-3-yl)-3-oxopropyl)-2,6-dimethylphenoxy)-2-methylpropanoic acid] | 0.496 | 0.063 | 1.95 | – | – | – | – | – | – | – | – | –
2 | COc1nc2ccccc2cc1C(=O)/C=C/c1cc(C)c(OC(C)(C)C(=O)O)c(C)c1 [Example 5, (E)-2-(4-(3-(2-methoxyquinolin-3-yl)-3-oxo-1-propen-1-yl)-2,6-dimethylphenoxy)-2-met hylpropionic acid] | 0.797 | 0.023 | 0.174 | 0.556 | 0.88 ± 0.35^b | 3.00 ± 0.93^b | significant reduction | significant reduction | 0.0283 | > 10 | 7.13 | 13

From patent US11261170B2, “Aromatic compound, pharmaceutical composition and use thereof” (Sichuan Kelun-Biotech Biopharmaceutical Co., Ltd., priority 2017, dated 2022)
